According to paper PMC12439166, “Dietary flavonoids form supramolecular assemblies, alter biochemistry, and enhance cell resilience” (Frontiers in Nutrition, 2025):

Tests used:
[1] = biological target: T1, Arginase 1 (ARG1) (Homo sapiens, UniProt P05089); assay: Enzyme activity assay (SAMDI-MS), Arginase 1; format: biochemical; details: 10 concentrations, 5 nM to 100 μM, compounds incubated with enzyme 30 min, result in words
T1 sequence (P05089 1-322): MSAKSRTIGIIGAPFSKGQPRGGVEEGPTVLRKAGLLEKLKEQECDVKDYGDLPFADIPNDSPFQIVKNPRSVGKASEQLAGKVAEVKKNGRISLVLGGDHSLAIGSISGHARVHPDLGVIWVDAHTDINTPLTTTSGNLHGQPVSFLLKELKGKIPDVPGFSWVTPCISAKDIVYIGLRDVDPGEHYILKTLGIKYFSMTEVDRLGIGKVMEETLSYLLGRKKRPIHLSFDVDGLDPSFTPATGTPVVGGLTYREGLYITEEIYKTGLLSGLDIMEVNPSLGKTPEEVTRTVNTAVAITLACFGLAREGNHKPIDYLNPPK
Procedure: Enzyme screens were performed by SAMDI Tech (contract research organization); enzyme assays were performed in a 20 μL volume in 384-well low-volume polypropylene microtiter plates (Greiner Bio-One) at room temperature. The enzymes [Arginase 1 (ARG1), Lysine demethylase 4C (KDM4C), MAP/microtubule affinity-regulating kinase 4 (MARK4), Histone-Lysine N-methyltransferase (NSD2), Tyrosine-protein phosphatase non-receptor type 1 (PTP1B), and Sirtuin-3 (SIRT3)] were incubated with compounds for 30 min prior to initiation of the reaction by the addition of substrate and cofactors (if required). […] SAMDI MS was performed using reflector positive mode on an AB Sciex TOF-TOF 5800 System (AB Sciex, Framingham, MA) with 400 shots/spot analyzed in a random raster sampling. For data analysis, the area under the curves (AUCs) for the product peak and substrate peak were calculated using the TOF/TOF Series Explorer (AB Sciex), and the amount of product formed was calculated using the equation AUC product / (AUC product + AUC Substrate). […]
IC50 values of enzyme inhibition. Inhibition of the enzymes was measured at 10 concentration values in the range of 5 nM to 100 μM for each compound and enzyme, with two technical replicates; the percent inhibition values were determined by SAMDI software. […]

[2] = biological target: T2, Lysine demethylase 4C (KDM4C) (Homo sapiens, UniProt Q9H3R0); assay: Enzyme activity assay (SAMDI-MS), KDM4C; format: biochemical; details: 10 concentrations, 5 nM to 100 μM, compounds incubated with enzyme 30 min, result in words
T2 sequence (Q9H3R0 1-1056): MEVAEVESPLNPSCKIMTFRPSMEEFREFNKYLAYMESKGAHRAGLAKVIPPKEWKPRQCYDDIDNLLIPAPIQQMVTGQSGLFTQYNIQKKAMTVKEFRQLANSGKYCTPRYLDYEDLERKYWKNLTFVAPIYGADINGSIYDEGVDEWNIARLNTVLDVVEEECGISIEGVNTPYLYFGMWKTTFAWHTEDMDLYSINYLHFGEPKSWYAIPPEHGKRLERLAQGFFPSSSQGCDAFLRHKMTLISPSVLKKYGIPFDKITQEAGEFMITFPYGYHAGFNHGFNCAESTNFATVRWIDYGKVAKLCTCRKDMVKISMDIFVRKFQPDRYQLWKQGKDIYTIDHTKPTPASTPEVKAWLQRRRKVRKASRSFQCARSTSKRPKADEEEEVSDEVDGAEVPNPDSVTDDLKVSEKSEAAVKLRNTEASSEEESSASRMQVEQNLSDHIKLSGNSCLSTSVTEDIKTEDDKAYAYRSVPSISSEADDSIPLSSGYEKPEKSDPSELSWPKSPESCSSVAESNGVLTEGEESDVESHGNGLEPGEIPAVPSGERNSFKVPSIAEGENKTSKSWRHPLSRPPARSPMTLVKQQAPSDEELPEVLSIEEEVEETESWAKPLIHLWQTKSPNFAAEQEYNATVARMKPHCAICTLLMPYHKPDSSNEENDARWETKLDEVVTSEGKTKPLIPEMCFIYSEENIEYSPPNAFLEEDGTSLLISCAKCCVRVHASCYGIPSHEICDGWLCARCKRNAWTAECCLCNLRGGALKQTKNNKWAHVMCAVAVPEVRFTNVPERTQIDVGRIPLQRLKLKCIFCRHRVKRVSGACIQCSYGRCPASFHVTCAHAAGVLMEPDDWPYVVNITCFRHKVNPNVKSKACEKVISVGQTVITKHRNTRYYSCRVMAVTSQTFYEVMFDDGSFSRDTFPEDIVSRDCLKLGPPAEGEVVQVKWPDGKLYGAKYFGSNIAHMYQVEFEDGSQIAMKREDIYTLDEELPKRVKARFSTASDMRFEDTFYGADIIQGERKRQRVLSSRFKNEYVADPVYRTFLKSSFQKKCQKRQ
Procedure: Enzyme screens were performed by SAMDI Tech (contract research organization); enzyme assays were performed in a 20 μL volume in 384-well low-volume polypropylene microtiter plates (Greiner Bio-One) at room temperature. The enzymes [Arginase 1 (ARG1), Lysine demethylase 4C (KDM4C), MAP/microtubule affinity-regulating kinase 4 (MARK4), Histone-Lysine N-methyltransferase (NSD2), Tyrosine-protein phosphatase non-receptor type 1 (PTP1B), and Sirtuin-3 (SIRT3)] were incubated with compounds for 30 min prior to initiation of the reaction by the addition of substrate and cofactors (if required). Reactions were quenched by the addition of 0.5% formic acid (final) with subsequent neutralization using 1% sodium bicarbonate (final). For SAMDI MS analysis, 2 μL of each reaction was transferred using a 384-channel automated liquid handler to SAMDI biochip arrays functionalized with a neutravidin-presenting self-assembled monolayer. The preparation of SAMDI biochip arrays has been previously described ([41], [42], [49]). The SAMDI arrays were incubated for 1 h in a humidified chamber to allow specific immobilization of the biotinylated substrates and products; they were then purified by washing with ultrafiltered water (50 μL/spot) and dried with compressed air. A matrix comprising α-Cyano-4-hydroxycinnamic acid in 80% acetonitrile: 20% aqueous ammonium citrate (10 mg/mL final) was applied in an automated format by dispensing 50 nL to each spot in the array. SAMDI MS was performed using reflector positive mode on an AB Sciex TOF-TOF 5800 System (AB Sciex, Framingham, MA) with 400 shots/spot analyzed in a random raster sampling. For data analysis, the area under the curves (AUCs) for the product peak and substrate peak were calculated using the TOF/TOF Series Explorer (AB Sciex), and the amount of product formed was calculated using the equation AUC product / (AUC product + AUC Substrate). Negative controls were pre-quenched with 0.5% formic acid (final). Lysozyme assay was performed using the manufacturer’s instructions (Biovision Lysozyme inhibitor screening kit K237). Flavonoids were acquired from Sigma-Aldrich and Seleckchem.
IC50 values of enzyme inhibition. Inhibition of the enzymes was measured at 10 concentration values in the range of 5 nM to 100 μM for each compound and enzyme, with two technical replicates; the percent inhibition values were determined by SAMDI software. Sigmoidal curves were fitted to the percent inhibition vs log10 (concentration) series, and IC50 values were determined at the crossing point of 50 % inhibition. Manual verification of the fits and the IC50 values was performed. The resulting IC50 values fell into the following categories: (a) within the assayed range of 5nM to 100μM (26 % of fits), (b) IC50 could be extrapolated, IC50 > 100μM (12 % of fits), or (c) fitting was not possible because all values were at baseline (62 % of fits). Compound efficacy ranking. First, for each IC50 value per compound and enzyme, a Z-score was calculated based on the log10 (IC50) value and that of the compounds that produced a successful readout for enzyme i , according to Equation 1: […]

Structure (SMILES)	inhibition of enzyme activity, ARG1 ([1]; listed as Quercetin)	inhibition of enzyme activity, ARG1 ([1]; listed as Quercitin)	inhibition of enzyme activity, KDM4C [2]	inhibition of enzyme activity, KDM4C ([2]; listed as Quercetin)	inhibition of enzyme activity, KDM4C ([2]; listed as Quercitin)
O=c1c(O)c(-c2ccc(O)c(O)c2)oc2cc(O)cc(O)c12 [quercetin]	inhibited	concentration-dependent inhibition	blocked	inhibited	concentration-dependent inhibition
C[C@@H]1O[C@@H](Oc2c(-c3ccc(O)c(O)c3)oc3cc(O)cc(O)c3c2=O)[C@H](O)[C@H](O)[C@H]1O [quercitrin]			blocked		
O=c1c(O[C@@H]2O[C@H](CO)[C@@H](O)[C@H](O)[C@H]2O)c(-c2ccc(O)c(O)c2)oc2cc(O)cc(O)c12 [isoquercitrin]			blocked		
